Experiments:
[1] = system: tonic extensor seizure; assay: maximal electroshock test (MES); format: in vivo, mouse (albino male CRS-CD1); conditions: PO, mouse, 4 hr, read-out: % Block (MES Test, mouse)
Protocol: The compounds of formula (I) are particularly useful as anticonvulsant agents in mammals including humans. The anticonvulsant activity of the subject compounds was determined using a standard "maximal electroshock test" (MES). In this test, activity is indicated by a block of the […] extensor seizure caused by application of an electric shock to mice via corneal electrodes, as described by Swinyard et al. in J. Pharmacol. Expt. Ther. 1952, 106, 319, and recorded as % block. A more recent description of current anticonvulsant drug screening is given by Swinyard in Epilepsia 1978, 19, 409. The anticonvulsant activity of the compounds of this invention tested according to the Swinyard 1952 method is shown in the following Table I.
In the test, albino male CRS-CD1 mice weighing between 18-25 g were used in all experiments (obtained from Charles River). They were allowed food and water ad libitum and were used only once. The electroshock apparatus and the corneal electrodes were purchased from Wahlquist Instrument Company, Salt Lake City, Utah.
Maximal electroshock seizures were induced by the delivery of a 60 Hertz (Hz) current of 50 milliamps (mA) intensity to the mouse through corneal electrodes for 0.2 seconds as originally described by Swinyard et al. (1952). This stimulus intensity is approximately 4 to 6 times the current producing 100% tonic extensor convulsions. During the validation of the MES test, the duration of the various seizure components following maximal electroshock were measured as follows: hindleg tonic flexion was measured from the time of the application of the stimulus to the time of onset of hindleg tonic extension (i.e. when the hindlegs deviate by greater than an angle of 90° from the torso), hindleg tonic extensor was measured from the time of extensor thrust to the onset of generalized clonus, and terminal clonus was measured from the beginning to the end of bilateral rhythmic clonic jerking. Mortality was also recorded. The duration of each seizure component agreed well with the values previously reported by Tedeschi et al. in J. Pharmacol. Expt. Ther. 1955, 116, 107. The corneal electrodes were concave so that saline could be applied to the electrodes to reduce mortality. If this procedure is followed, mortality should always be less than 40% in control mice. Thus, at an electroshock stimulus of 60 Hz, 50 mA and 0.2 seconds duration, the order of convulsive components and the percentage of control animals displaying the behaviors should be as follows: tonic flexion (100%), tonic extension (100%) and clonus (100%) with less than 40% mortality.
For testing compounds, the abolition of the tonic extensor component was the endpoint. Animals were dosed orally (PO) with either vehicle or test drug and at a specified time were given a maximal electric shock through corneal electrodes blotted with saline (as described above). A minimum of 10 animals were used per group and the percentage of animals in the group without tonic hindlimb extension recorded. Determination of ED50 values (that dose of drug inhibiting 50% of the tonic extensor seizures) is shown below in Table I.

[2] = system: Total Acid Output; assay: pylorus-ligated rat test, gastric antisecretory activity; format: in vivo, rat (male Charles River Sprague-Dawley derived); conditions: IP, 200 mg/kg
Protocol: The gastric antisecretory activity of the compounds shown in Table II was determined by the pylorus-ligated rat test described by Shay et al. in Gastroenterol. 1954, 26, 906. In this method, male Charles River Sprague-Dawley derived rats weighing 150-300 grams were deprived of food but not water for 18-24 hours prior to use. Water was withheld during the experiment, however. The rats were weighed, lightly anesthetized with ether and the pylorus ligated according to the method of Shay et al., supra. The treatment or vehicle control was then administered intraperitoneally (IP) or orally (PO). When administered by the IP route, the administration was done 30 minutes before ligation. When administered by the PO route, the administration was done prior to ligation (about 1/2 to 3 hours before). Rats were housed two per cage and sacrificed with carbon dioxide 3 hours after ligation. Their stomachs were removed, rinsed, and contents emptied into a graduated centrifuge tube. The tubes were centrifuged, the volume of gastric juice was recorded, and any samples obviously contaminated by feces, food or blood were eliminated. A 1 mL aliquot of gastric juice was titrated with 0.1N NaOH to a pH of 7.0-7.4. The volume of gastric juice secreted, the acid concentration, and the product of the volume times the concentration, i.e. the total amount of acid secreted, were measured. The total acid output was calculated by multiplying the volume of gastric juices collected times the hydrogen ion concentration (amount of NaOH added to a sample to reach a pH of 7.0-7.4) and dividing that value by 10. The mean value of the total acid output for a control group of rats was then subtracted from the mean value of the total acid output for the group of rats tested at the same dose. That value was then divided by the mean value of total acid output for the control group and the resulting number was multiplied by 100 to provide a Percent Inhibition value, which values are reported in Table II. The […] was determined statistically as the dose at which a 50% inhibition would be realized.

[3] = rat diuresis study; format: in vivo, rat (male Wistar); conditions: 2.5 mg/kg PO, average of five animals
Source text: Evidence for the inhibition of carbonic anhydrase by compounds of the formula (I) can also be obtained by a diuresis study, such as described by A. Weiner in Goodman and Gilman's The Pharmacological Basis of Therapeutics, 8th ed.; Goodman Gilman, A.; Rall, T. W.; Nies, A. S.; Taylor, P., Eds.; Pergamon Press: New York, 1990; pp 716-718. An increase in urine akalinity accompanied with an increase in water intake and urine output provides an indirect indication of carbonic anhydrase inhibition activity. Male Wistar rats having a weight of 250-300 g were dosed orally (PO) and housed in cages that allowed for the quantitative measure of fluid intake and urine output. Water intake and urine output were measured at 24 hours versus control, whereas urine pH, obtained via pH meter, was measured at 4 and 24 hours versus control. The results of this study, which are the average of five animals, are reported below in Table III. […] Such data is also an indication of the usefulness of the compounds of formula (I) as diuretics in the treatment of hypertension, congestive heart failure and other types of edema. The determination of suitable dosages for such compounds for the treatment of hypertension and congestive heart failure and other types of edema is within the skill of the art.

| SMILES | responders at 10 mg/kg ([1]; 10 mg/kg) [%] | Percent Inhibition of Total Acid Output [2] [%] | Urine pH ([3]; 4 hours, control 6.98) | Urine pH ([3]; 24 hours, control 6.43) | Water Intake ([3]; 24 hours, control 15.0) [mL] | Urine Output ([3]; 24 hours, control 17.6) [mL] | responders at 75 mg/kg ([1]; 75 mg/kg) [%] |
| --- | --- | --- | --- | --- | --- | --- | --- |
| CC1(C)O[C@H]2[C@@H]3OS(=O)(=O)O[C@@H]3CO[C@@]2(COS(=O)(=O)NC2CC2)O1 [Example 9, 2,3-O-(1-Methylethylidene)-4,5-O-sulfonyl-β-D-fructopyranose Cyclopropylsulfamate] | 90 | 87 | 9.02 | 7.26 | 27.8 | 33.2 | – |
| CC1(C)O[C@H]2[C@@H]3OS(=O)(=O)O[C@@H]3CO[C@@]2(COS(=O)(=O)NC2CCCCCCC2)O1 [Example 11, 2,3-O-(1-Methylethylidene)-4,5-O-sulfonyl-β-D-fructopyranose Cyclooctylsulfamate] | – | 50 | – | – | – | – | 30 |

Source: patent publication US5242942A, “Anticonvulsant fructopyranose cyclic sulfites and sulfates” (McNeilab, Inc., priority 1992, dated 1993)
